The values below come from patent publication US20230143604A1, “QW DOSING OF GIP RECEPTOR AGONIST PEPTIDE COMPOUNDS AND USES THEREOF” (TAKEDA PHARMACEUTICAL COMPANY LIMITED, priority 2020, published 2023).

SMILES strings stand for the structures. Starred links: 1 amine or outer side, 2 acyl side, 3 side chain; linkers in the order of their positions; H or OH if unused. Non-standard residues stand in square brackets, D forms with d. Residues, ends and D or L forms follow the SMILES beside them. Groups on a side chain read outwards from the residue. *: point of attachment. C18 diacid = O=C(O)CCCCCCCCCCCCCCCCC(=O)*; γGlu = O=C(O)[C@H](CCC(=O)[*:2])N[*:1]; NMeY = CN[C@@H](Cc1ccc(O)cc1)C(=O)O; AEEA = NCCOCCOCC(=O)O; Aib = CC(C)(N)C(=O)O

The nature of the series: physchem. Put shortly:
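3 mg of peptide treated with 100 μL portions of 200 mM phosphate buffer pH 7.4, sonicating/vortexing up to 1 min, with further buffer added until fully dissolved. Solubility then quantified by HPLC.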

In turn, `CC[C@H](C)[C@H](NC(=O)[C@H](Cc1ccccc1)NC(=O)[C@@H](NC(=O)CNC(=O)[C@H](CCC(=O)O)NC(=O)C(C)(C)NC(=O)[C@H](Cc1ccc(O)cc1)NC)[C@@H](C)O)C(=O)N[C@@H](CO)C(=O)N[C@@H](CC(=O)O)C(=O)N[C@@H](Cc1ccc(O)cc1)C(=O)N[C@@H](CO)C(=O)N[C@H](C(=O)NC(C)(C)C(=O)N[C@@H](CC(C)C)C(=O)N[C@@H](CC(=O)O)C(=O)N[C@@H](CCCNC(=N)N)C(=O)NC(C)(C)C(=O)N[C@@H](CCCCNC(=O)COCCOCCNC(=O)COCCOCCNC(=O)CC[C@H](NC(=O)CC[C@H](NC(=O)CCCCCCCCCCCCCCCCC(=O)O)C(=O)O)C(=O)O)C(=O)N[C@@H](CCC(N)=O)C(=O)NC(C)(C)C(=O)N[C@@H](CC(=O)O)C(=O)N[C@@H](Cc1ccccc1)C(=O)N[C@H](C(=O)N[C@@H](CC(N)=O)C(=O)N[C@@H](Cc1c[nH]c2ccccc12)C(=O)N[C@@H](CC(C)C)C(=O)N[C@@H](CC(C)C)C(=O)N[C@@H](C)C(=O)N[C@@H](CCC(N)=O)C(=O)N[C@@H](CCCNC(=N)N)C(=O)NCC(=O)O)C(C)C)[C@@H](C)CC` [Compound 73] (H-[NMeY][Aib]EGTFISDYSI[Aib]LDR[Aib]K([AEEA-AEEA-γGlu-γGlu-C18 diacid])Q[Aib]DFVNWLLAQRG-OH) yielded a solubility (pH 7.4) of at least 15 mg/mL and a solubility (pH 7.4, aqueous buffer) of at least 30 mg/mL.
`CC[C@H](C)[C@H](NC(=O)[C@H](Cc1ccccc1)NC(=O)[C@@H](NC(=O)CNC(=O)[C@H](CCC(=O)O)NC(=O)C(C)(C)NC(=O)[C@H](Cc1ccc(O)cc1)NC)[C@@H](C)O)C(=O)N[C@@H](CO)C(=O)N[C@@H](CC(=O)O)C(=O)N[C@@H](Cc1ccc(O)cc1)C(=O)N[C@@H](CO)C(=O)N[C@H](C(=O)NC(C)(C)C(=O)N[C@@H](CC(C)C)C(=O)N[C@@H](CC(=O)O)C(=O)N[C@@H](CCCNC(=N)N)C(=O)NC(C)(C)C(=O)N[C@@H](CCCCNC(=O)COCCOCCNC(=O)COCCOCCNC(=O)CC[C@H](NC(=O)CC[C@H](NC(=O)CCCCCCCCCCCCCCCCC(=O)O)C(=O)O)C(=O)O)C(=O)N[C@@H](CCC(N)=O)C(=O)NC(C)(C)C(=O)N[C@@H](CC(N)=O)C(=O)N[C@@H](Cc1ccccc1)C(=O)N[C@H](C(=O)N[C@@H](CC(N)=O)C(=O)N[C@@H](Cc1c[nH]c2ccccc12)C(=O)N[C@@H](CC(C)C)C(=O)N[C@@H](CC(C)C)C(=O)N[C@@H](C)C(=O)N[C@@H](CCC(N)=O)C(=O)N[C@@H](CCCNC(=N)N)C(=O)NCC(=O)O)C(C)C)[C@@H](C)CC` [Compound 74] (H-[NMeY][Aib]EGTFISDYSI[Aib]LDR[Aib]K([AEEA-AEEA-γGlu-γGlu-C18 diacid])Q[Aib]NFVNWLLAQRG-OH): the solubility runs as follows: (pH 7.4) at least 15 mg/mL; (pH 7.4, aqueous buffer) at least 30 mg/mL.
For `CC[C@H](C)[C@H](NC(=O)[C@H](CO)NC(=O)[C@H](Cc1ccc(O)cc1)NC(=O)[C@H](CC(=O)O)NC(=O)[C@H](CO)NC(=O)[C@@H](NC(=O)[C@H](Cc1ccccc1)NC(=O)[C@@H](NC(=O)CNC(=O)[C@H](CCC(=O)O)NC(=O)C(C)(C)NC(=O)[C@H](Cc1ccc(O)cc1)NC)[C@@H](C)O)[C@@H](C)CC)C(=O)N[C@@H](C)C(=O)N[C@@H](CC(C)C)C(=O)N[C@@H](CC(=O)O)C(=O)N[C@@H](CO)C(=O)N[C@@H](CCCCNC(=O)CNC(=O)CNC(=O)CNC(=O)CNC(=O)CNC(=O)CCCCCCCCCCCCCCCCC(=O)O)C(=O)N[C@@H](C)C(=O)N[C@@H](CCC(N)=O)C(=O)NC(C)(C)C(=O)N[C@@H](CC(=O)O)C(=O)N[C@@H](Cc1ccccc1)C(=O)N[C@H](C(=O)N[C@@H](CC(N)=O)C(=O)N[C@@H](Cc1c[nH]c2ccccc12)C(=O)N[C@@H](CC(C)C)C(=O)N[C@@H](CC(C)C)C(=O)N[C@@H](C)C(=O)N[C@@H](CCC(N)=O)C(=O)N[C@@H](CCCCN)C(=O)NCC(=O)O)C(C)C` [Compound 78], the solubility (pH 7.4) was at least 15 mg/mL and the solubility (pH 7.4, aqueous buffer) was at least 30 mg/mL.

A word on the solubility: it is the dissolved amount per volume that the medium holds. Low values mean little dissolved substance, high ones much dissolved substance.
